Reference: ChEMBL document CHEMBL1136916, “Discovery of new S-adenosylmethionine decarboxylase inhibitors for the treatment of Human African Trypanosomiasis (HAT)” (Bioorg Med Chem Lett, 2009)
Active and inactive are the calls of the source. The calls are words filed in the database; no cut-off is given here.

Key:
[1] = Distribution coefficient, log D at pH 7.4 by shake flask method; type: physicochemical; conditions: octanol/water
[2] = tested on: Trypanosoma brucei brucei; assay: Antitrypanosomal activity against Trypanosoma brucei brucei infected mouse assessed as reduction in parasitemia; type: functional, organism-based
[3] = tested on: Trypanosoma brucei brucei; assay: Antitrypanosomal activity against Trypanosoma brucei brucei; type: functional, organism-based
Trypanosoma brucei = assay: Inhibition of Trypanosoma brucei AdoMetDC assessed as ratio of Kinact to Ki(apparent)
[4] = tested on: Trypanosoma brucei rhodesiense; assay: Antitrypanosomal activity against Trypanosoma brucei rhodesiense; type: functional, organism-based
[5] = Cmax in brain of single dose ip administered mouse; type: ADME, organism-based; set-up: route intraperitoneal
[6] = AUC in blood of single dose ip administered mouse; type: ADME, organism-based
[7] = AUC in brain of single dose ip administered mouse; type: ADME, organism-based
[8] = Cmax in blood of single dose ip administered mouse; type: ADME, organism-based; set-up: route intraperitoneal
[9] = Half life in single dose ip administered mouse; type: ADME, organism-based; conditions: in vivo

**Q.** With `CN(C/C=C\CN)C[C@H]1O[C@@H](n2cnc3c(N)ncnc32)[C@H](O)[C@@H]1O` as the compound, how does the logD [1] read?
**A.** -1.8

**Q.** What about the Activity [2] of the same compound?
**A.** Active

**Q.** What about the IC50 [3] of the same compound?
**A.** 0.21 µM

**Q.** And the Ratio (Trypanosoma brucei)?
**A.** 1.5

**Q.** And the IC50 [4]?
**A.** 0.011 µM

**Q.** For `CN(C/C=C\CN)C[C@H]1O[C@@H](n2cnc3c(N)ncnc32)[C@H](F)[C@@H]1O`, which IC50 [3] is on record?
**A.** > 14 µM

**Q.** What about the Ratio (Trypanosoma brucei) of the same compound?
**A.** 0.19

**Q.** And the IC50 [4]?
**A.** 1.4 µM

**Q.** With `Cc1nc2c(N)ncnc2n1[C@@H]1O[C@H](CN(C)C/C=C\CN)[C@@H](O)[C@H]1O` as the compound, how does the Activity [2] read?
**A.** Active

**Q.** And the IC50 [3]?
**A.** 0.027 µM

**Q.** What about the Cmax [5] of the same compound?
**A.** 660 ng/mL

**Q.** What about the AUC [6] of the same compound?
**A.** 17900 ng·h/mL

**Q.** What about the AUC [7] of the same compound?
**A.** 1300 ng·h/mL

**Q.** And the Cmax [8]?
**A.** 36900 ng/mL

**Q.** What about the Ratio (Trypanosoma brucei) of the same compound?
**A.** 7.78

**Q.** And the half-life [9]?
**A.** 7.43 h

**Q.** And the IC50 [4]?
**A.** 0.001 µM

**Q.** For `CN(C/C=C\CN)C[C@H]1O[C@@H](n2cnc3c(N)nc(Cl)nc32)[C@H](O)[C@@H]1O`, which IC50 [3] is on record?
**A.** 7.27 µM

**Q.** What about the Ratio (Trypanosoma brucei) of the same compound?
**A.** 0.02

**Q.** And the IC50 [4]?
**A.** 1.7 µM

**Q.** With `CN(C/C=C\CN)C[C@H]1O[C@@H](n2cnc3c(N)ncnc32)[C@@H](F)[C@@H]1O` as the compound, how does the IC50 [3] read?
**A.** > 14 µM

**Q.** What about the Ratio (Trypanosoma brucei) of the same compound?
**A.** 0.19

**Q.** What about the IC50 [4] of the same compound?
**A.** 2.6 µM

**Q.** For `Cc1nc(N)c2ncn([C@@H]3O[C@H](CN(C)C/C=C\CN)[C@@H](O)[C@H]3O)c2n1`, which IC50 [3] is on record?
**A.** > 14 µM

**Q.** For `CCCc1nc2c(N)ncnc2n1[C@@H]1O[C@H](CN(C)C/C=C\CN)[C@@H](O)[C@H]1O`, which IC50 [3] is on record?
**A.** 11.1 µM

**Q.** Which IC50 [3] does the source give for `CCc1nc2c(N)ncnc2n1[C@@H]1O[C@H](CN(C)C/C=C\CN)[C@@H](O)[C@H]1O` here?
**A.** 0.9 µM
